Assay results taken from ChEMBL document CHEMBL3046250, “Synthesis and anticonvulsant evaluation of 3-substituted-4-(4-hexyloxyphenyl)-4H-1,2,4-triazoles” (Med Chem Res, 2009).

How the values were obtained:
Mus musculus [1] = test: Anticonvulsant activity in ip dosed Mus musculus C57B/6 (mouse) assessed as protection against maximal electroshock-induced seizures; type: functional; conditions: C57B/6, ip
[2] = Protective index, ratio of TD50 for neurotoxicity to ED50 for anticonvulsant activity in ip dosed Mus musculus C57B/6 (mouse); type: toxicity, organism-based; conditions: in vivo, read-out: Ratio TD50/ED50
[3] = Neurotoxicity in ip dosed Mus musculus C57B/6 (mouse) assessed as inability to maintain equilibrium measured after 30 min by rotarod test; type: toxicity, organism-based; conditions: in vivo
Mus musculus [4] = test: Anticonvulsant activity in Mus musculus (mouse) assessed protection against subcutaneous pentylenetetrazole-induced seizures; type: functional; conditions: sc
[5] = Neurotoxicity in Mus musculus (mouse) by rotarod test; type: toxicity, organism-based; conditions: in vivo

Compound	ED50 (Mus musculus [1]) [mg/kg]	selectivity ratio [2]	TD50 at 0.5 h [3] [mg/kg]	ED50 (Mus musculus [4]) [mg/kg]	TD50 [5] [mg/kg]
CCCCCCOc1ccc(-n2cnnc2CCCCCC)cc1	> 40	–	–	–	–
CCCCCCOc1ccc(-n2cnnc2CCCC)cc1	13.6	8.1	110	–	–
c1ccc(COc2ccc3c(c2)CCc2nncn2-3)cc1	–	–	–	24	–
CCCCCCOc1ccc(-n2cnnc2-c2ccc(Cl)cc2)cc1	19.7	6.9	137	–	–
CCCCCCOc1ccc(-n2cnnc2)cc1	9.8	11.4	112	–	–
CCCCCCOc1ccc(-n2cnnc2C)cc1	22.8	4.9	114	–	–
CCCCCCOc1ccc(-n2cnnc2-c2ccccc2F)cc1	20.2	5	101	–	–
CCCCCCOc1ccc(-n2cnnc2-c2ccccc2Cl)cc1	13.2	6.9	91.2	–	–
CCCCCCOc1ccc(-n2cnnc2CCCCC)cc1	32.8	5.8	189	–	–
CCCCCCOc1ccc(-n2cnnc2-c2ccc(OC)cc2)cc1	15.8	7.6	120	–	–
CCCCCCOc1ccc(-n2cnnc2-c2ccc(C)cc2)cc1	11.4	8.8	101	–	–
CCCCCCOc1ccc(-n2cnnc2-c2ccc(F)cc2)cc1	22	4.2	91.3	–	–
CCCCCCOc1ccc(-n2cnnc2-c2cccc(F)c2)cc1	27.4	3.8	104	–	–
CCCCCCOc1ccc2c(c1)CCc1nncn1-2	–	2.2	–	–	–
CCCCCCOc1ccc(-n2cnnc2CCc2ccccc2)cc1	27.4	5.7	158	–	–
CCCCCCOc1ccc(-n2cnnc2CC)cc1	–	4.7	–	–	–
CCCCCCCc1nncn1-c1ccc(OCCCCCC)cc1	> 40	–	–	–	–
CCCCCCCCCc1nncn1-c1ccc(OCCCCCC)cc1	> 40	–	–	–	–
CCCCCCOc1ccc(-n2cnnc2CCC)cc1	5.7	11.5	65.7	–	–
O=C1CCc2cc(OCc3ccccc3)ccc2N1	–	–	–	–	> 300
CCCCCCOc1ccc(-n2cnnc2-c2ccccc2)cc1	19	7.2	137	–	–
CCCCCCOc1ccc(-n2cnnc2Cc2ccccc2)cc1	19	6.9	131	–	–
